From patent US20240368559A1, “METHOD OF PRODUCING BRAIN MICROVASCULAR ENDOTHELIAL-LIKE CELLS AND USE THEREOF” (PUBLIC UNIVERSITY CORPORATION NAGOYA CITY UNIVERSITY, priority 2021, published 2024)

Key:
Format in all cases: cell-based
[1] = tested on: iBPCs (human iPS cell-derived brain pericytes); assay: Brain pericyte marker gene expression in iBPCs by RT-q PCR; conditions: FIG. 20; 1 μM A 83-01 from day 8, iBPCs on day 12 of differentiation
Procedure: (§1) The above-described hiPSCs were used and induced to differentiate into iBPCs. Human iPS cells cultured in mTeSR plus medium were detached by using TrypLE Select, seeded on a VTN-N-coated culture dish at a density of 2×10^4 cells/cm^2, and then cultured in mTeSR plus medium containing 10 μM of Y-27632 (manufactured by Focus Biomolecules) for 24 hours. Thereafter, the cells were cultured for 1 day in modified DMEM/F12 medium (DMEM/F12 containing 0.1% chemically defined lipid concentrate, 0.1×insulin-transferrin-selenium (from Thermo Fisher Scientific), 2 mM GlutaMAX (from Sigma-Aldrich), […] 1-thioglycerol (from Sigma-Aldrich), 50 μg/mL of L-ascorbic acid phosphate magnesium salt n-hydrate, and 1×penicillin-streptomycin solution) supplemented with 5 μM CHIR-99021 (manufactured by Focus Biomolecules). Next, the cells were cultured for 1 day in modified DMEM/F12 medium containing 50 ng/mL of FGF2. […]
The expression level of each brain pericyte marker gene was analyzed by RT-q PCR. […] Relative expression levels of mRNA in X (+) and X (−) were determined while the expression level of mRNA in hPCs was set to 1 as a reference. […]

[2] = tested on: iBMELCs (human iPS cell-derived brain microvascular endothelial-like cells); assay: Transendothelial electrical resistance (TEER) of iBMELCs induced to differentiate from iEPCs under varied medium and coating conditions; conditions: FIG. 6
Description: iEPCs were induced to differentiate into iBMELCs under conditions where the coating agent and the additive added to the culture medium each varied. For coating the culture dish, as described above, two components of FBN and COL4, or three components obtained by adding any one component of VTN-N, LN221, LN411F, and LN511F to these two components, or four components obtained by adding LN411F and LN511F to these two components were used. As the third component, Laminin211, Laminin411, Laminin511, Agrin, Laminin-mix, Laminin-fragment mix, or hep ex was also used. […]
In order to examine the effect of cryopreserving iEPCs induced to differentiate from hiPSCs, the difference in transendothelial electrical resistance (TEER value) was compared between the presence and absence of freezing. A frozen group, in which iEPCs on day 14 of differentiation were frozen and thawed by the above-described method, and a unfrozen group of unfrozen iEPCs on day 14 of differentiation were induced to differentiate into iBMELCs by the above-described method while using the above-described differentiation-inducing condition A, and the TEER value was then measured. […] As used herein, the “maximum TEER value” means the maximum value among the TEER values measured on each day from day 2 after seeding to day 10 after seeding. […]

[3] = tested on: iBPCs (human iPS cell-derived brain pericytes); assay: Brain pericyte marker protein expression in iBPCs by immunostaining; conditions: FIGS. 21 and 22; 1 μM A 83-01 in differentiation medium
Procedure: as §1, with “FGF2. Then, the cells were cultured for 2 days in EGM-2 medium (EGM-2 basal medium containing 2% FBS, 0.2 μg/mL hydrocortisone, 10 ng/mL FGF2, 20 ng/mL R3-IGF-1, 1 μg/mL ascorbic acid, 5 ng/mL hEGF, gentamicin, and amphotericin B) supplemented with 50 ng/mL PDGF-BB and 0.5 ng/mL VEGF. During this time, the medium was changed every day. On day 4, cells treated with 10 μM Y-27632 for 1 hour were dissociated using TrypLE Select, subcultured on a new VTN-N-coated culture dish at 1.25×10^4 cells/cm^2, and then induced to differentiate in an EGM-2 medium containing 50 ng/mL PDGF-BB. During this time, the medium was changed every day. On day 8 of differentiation, the cells were induced to differentiate in an EGM-2 medium containing 50 ng/mL PDGF-BB, and 1 μM A 83-01. During this time, the medium was changed every day.” for “FGF2.”
iBPCs (X(+) and X(−)) induced to differentiate from hiPSCs by the above method were analyzed by immunostaining in order to check the properties as BPCs. […] After that, the cells were washed three times with D-PBS (−), and then analyzed with an Operetta High-Content Imaging System (manufactured by PerkinElmer). […]

[4] = tested on: iBPCs (human iPS cell-derived brain pericytes); assay: Cell scratch test of cell migration ability and proliferation potential of iBPCs; conditions: FIGS. 23 and 24
Procedure: as §1
Samples used were iBPCs (X (+)) induced to differentiate by adding A 83-01 in the above method and iBPCs (X (−)) induced to differentiate without adding A 83-01 in the above method. […] How the cells migrated 0, 12, and 24 hours of culture after cell scratching was checked by bright field observation, and the scratched area was calculated by Image J.

Cc1cccc(-c2nn(C(=S)Nc3ccccc3)cc2-c2ccnc3ccccc23)n1 [A 83-01]
relative mRNA expression level of α-SMA (human primary pericytes = 1) [1]: suppress the gene expression of α-SMA to the same extent as that of human primary pericytes | maximum TEER value (barrier function of iBMELCs) at content of 1 μM ([2]; 1 μM vs 10 μM): high barrier function equivalent to the case of the content of 10 μM | maximum TEER value (barrier function of iBMELCs), added vs not added ([2]; 0.1, 1 or 10 μM in HE-SFM with 20 ng/mL FGF2 and 7.5% B27s, FBN+COL4 coating): the barrier function of iBMELCs was higher than that when A 83-01 was not added | expression of NG2 (relative average fluorescence intensity, X (−) = 1) [3]: did not significantly affect | expression of PDGFR-β (relative average fluorescence intensity, X (−) = 1) [3]: did not significantly affect | protein expression of α-SMA (relative average fluorescence intensity, X (−) = 1) [3]: suppress the protein expression of α-SMA | cell migration ability and proliferation potential of iBPCs ([4]; X (+) vs X (−)): enhance the cell migration ability and proliferation potential of iBPCs | relative distance of the cell scratch portion (0 hour = 1) ([4]; iBPCs (X (+)), 24 hours after cell scratching, number of samples 1): 0
